The results in this text go back to PMC7828211, “LysM Receptor-Like Kinase LYK9 of Pisum Sativum L. May Regulate Plant Responses to Chitooligosaccharides Differing in Structure” (International Journal of Molecular Sciences, 2021).

Like-named read-outs stand apart in the source and are kept apart here.

For one assay, the target named is T1, PsLYK9-ECD (Lathyrus oleraceus, UniProt A0A9D5AD18).
T1 construct: gene KIW84_053210; corresponds to residues 31-235), GP67 signal in vector, 6xHis tag, Sf9 cells, predicted 23 kDa, about 35 kDa on blot; RED-tris-NTA labelled
T1 sequence (A0A9D5AD18 26-230): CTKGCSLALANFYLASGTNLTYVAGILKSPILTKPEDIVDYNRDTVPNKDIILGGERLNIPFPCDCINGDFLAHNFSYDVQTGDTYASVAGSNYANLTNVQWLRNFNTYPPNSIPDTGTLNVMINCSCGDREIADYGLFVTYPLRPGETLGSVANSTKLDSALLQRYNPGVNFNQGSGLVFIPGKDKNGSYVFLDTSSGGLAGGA
The assay is described as follows: microscale thermophoresis. The class given is binding. The conditions noted are these: 50 mM Tris pH 7.4, 10 mM MgCl2, 150 mM NaCl, 0.05% Tween 20, 25 °C; 20 nM RED-tris-NTA labelled protein; read-out: Kd, μM (±SD). The text has this: microscale thermophoresis on PsLYK9-ECD
(In general: Microscale thermophoresis detects binding through changes in fluorescence in a small temperature gradient.)

For the next assay, the target named is T2, PsLYR4-ECD.
T2 construct: gene LYR4; corresponds to residues 8-257), GP67 signal in vector, 6xHis tag, Sf9 cells, predicted 27 kDa, about 32 kDa on blot; RED-tris-NTA labelled
The assay is described as follows: microscale thermophoresis. The class given is binding, Pisum sativum. To be noted: 50 mM Tris pH 7.4, 10 mM MgCl2, 150 mM NaCl, 0.05% Tween 20, 25 °C, 20 nM RED-tris-NTA labelled protein. The text has this:
microscale thermophoresis on PsLYR4-ECD

With `CC(=O)N[C@H]1[C@H](O[C@H]2[C@H](O)[C@@H](NC(C)=O)C(O)O[C@@H]2CO)O[C@H](CO)[C@@H](O[C@@H]2O[C@H](CO)[C@@H](O[C@@H]3O[C@H](CO)[C@@H](O)[C@H](O)[C@H]3NC(C)=O)[C@H](O)[C@H]2NC(C)=O)[C@@H]1O` (stereo partly shown) [CO4], the Kd on PsLYK9-ECD was 2.1 ± 0.6 µM.
With `N[C@H]1[C@H](O[C@H]2[C@H](O)[C@@H](N)[C@H](O[C@H]3[C@H](O)[C@@H](N)[C@H](O[C@H]4[C@H](O)[C@@H](N)[C@H](O[C@H]5[C@H](O)[C@@H](N)C(O)O[C@@H]5CO)O[C@@H]4CO)O[C@@H]3CO)O[C@@H]2CO)O[C@H](CO)[C@@H](O)[C@@H]1O` (stereo partly shown) [CO5-DA], the Kd was determined as 45 ± 20 µM on PsLYR4-ECD (read-out: Kd, μM (±SD)) and 76 ± 25 µM at PsLYK9-ECD.
As for `CC(=O)N[C@H]1[C@H](O[C@H]2[C@H](O)[C@@H](NC(C)=O)[C@H](O[C@H]3[C@H](O)[C@@H](NC(C)=O)C(O)O[C@@H]3CO)O[C@@H]2CO)O[C@H](CO)[C@@H](O[C@@H]2O[C@H](CO)[C@@H](O[C@@H]3O[C@H](CO)[C@@H](O)[C@H](O)[C@H]3NC(C)=O)[C@H](O)[C@H]2NC(C)=O)[C@@H]1O` (stereo partly shown) [CO5], the Kd on PsLYK9-ECD amounted to 5 ± 1.9 µM.
As for `N[C@H]1[C@H](O[C@H]2[C@H](O)[C@@H](N)[C@H](O[C@H]3[C@H](O)[C@@H](N)[C@H](O[C@H]4[C@H](O)[C@@H](N)[C@H](O[C@H]5[C@H](O)[C@@H](N)[C@H](O[C@H]6[C@H](O)[C@@H](N)C(O)O[C@@H]6CO)O[C@@H]5CO)O[C@@H]4CO)O[C@@H]3CO)O[C@@H]2CO)O[C@H](CO)[C@@H](O)[C@@H]1O` (stereo partly shown) [CO6-DA], the Kd at PsLYR4-ECD (read-out: Kd, μM (±SD)) worked out at 22 ± 11 µM; at PsLYK9-ECD, 42 ± 23 µM.
On to `N[C@H]1[C@H](O[C@H]2[C@H](O)[C@@H](N)[C@H](O[C@H]3[C@H](O)[C@@H](N)[C@H](O[C@H]4[C@H](O)[C@@H](N)[C@H](O[C@H]5[C@H](O)[C@@H](N)[C@H](O[C@H]6[C@H](O)[C@@H](N)[C@H](O[C@H]7[C@H](O)[C@@H](N)C(O)O[C@@H]7CO)O[C@@H]6CO)O[C@@H]5CO)O[C@@H]4CO)O[C@@H]3CO)O[C@@H]2CO)O[C@H](CO)[C@@H](O)[C@@H]1O` (stereo partly shown) [CO7-DA], for which the Kd at PsLYR4-ECD (read-out: Kd, μM (±SD)) worked out at 19 ± 13 µM; on PsLYK9-ECD, 31 ± 11 µM.
Regarding CO8-DA, the dissociation constant Kd is 8 ± 5 µM on PsLYR4-ECD (read-out: Kd) and 26 ± 15 µM at PsLYK9-ECD.

For orientation: Kd means the concentration at which binding is half-saturated.
